The record followed here is publication PMC8505397, “Development of peptides targeting receptor binding site of the envelope glycoprotein to contain the West Nile virus infection” (Scientific Reports, 2021).

pEC50: −log10 of the molar value. Values joined by “and” are separate entries in the source; they are usually repeats but may differ in a detail not shown here. Equal entries are not always repeated. Where two headings read alike, the source gives them in different places.

Assay [1] addresses T1, interaction between rDIII and proteins of hBMECs (West Nile virus, UniProt P06935).
T1 construct: rDIII – recombinant domain III; made in house; host or cells: E. coli M15
T1 sequence (P06935 584-692 limits assumed): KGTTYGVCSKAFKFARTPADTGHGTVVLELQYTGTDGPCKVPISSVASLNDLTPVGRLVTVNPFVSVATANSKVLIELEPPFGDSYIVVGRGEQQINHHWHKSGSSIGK
Kind of assay: Blocking of interaction between rDIII and proteins of hBMECs by peptides (ELISA). It is filed as binding, West Nile virus / human. Here is the method: First, concentration-dependent ELISA and Western blot were performed to get the minimum concentration of rDIII required to show its interaction with hBMECs proteins. Details are presented in Supplementary Method S12 and Supplementary Method S13. Subsequently, the ability of 7-mer and 12-mer peptides to block the interaction between rDIII and proteins of hBMECs was tested. A tenfold molar excess of peptides was incubated with rDIII for 1 h at room temperature. Such pre-incubated rDIII was subsequently used in the assays. Details of both methods are described in Supplementary Method S12 and Supplementary Method S13. […]
Blocking of interaction between rDIII and proteins of hBMECs by peptides (ELISA). First, different concentrations of rDIII were tested to get the minimum concentration of rDIII required to show the interaction with hBMECs proteins. Protein extract of hBMECs (4 μg/well) diluted in coating buffer (0.5 M Na2CO3, 0.5 M NaHCO3; pH 9.5) was incubated in the microtiter wells for overnight at 4°C. Unbound hBMECs proteins were washed with PBS (pH 7.3) containing 0.05% Tween 20 (0.05% PBST) and non-specific binding sites were blocked with 0.5% BSA in 0.05% PBST. rDIII at different concentrations (5 µg, 2.5 µg, 2 µg, 1 µg, 500 […]
ng, 250 ng, 125 ng, and 62.5 ng) diluted in 0.05% PBST was added into wells and incubated for 3 h at room temperature and constant shaking. Wells were washed 3 times with 0.05% PBST and incubated with HisProbe-HRP conjugate (1:5,000 dilution in 0.1% BSA in 0.05% PBST; Thermo Fisher Scientific) for 30 min at room temperature and constant shaking. […] The reaction was stopped after 25 min with 2 M H2SO4 and the absorbance was measured at 450 nm. […]
After blocking, the wells were washed 3 times with 0.05% PBST, pre-incubated rDIII was added and incubated for 3 h at room temperature with constant shaking. […] The reaction was stopped after 25 min with 2 M H2SO4 and the absorbance was measured at 450 nm. hBMECs proteins incubated with untreated rDIII were used as a positive control. […]
A general note: ELISA stands for enzyme-linked immunosorbent assay.

Assay [2] concerns WNV virus like particles (VLP) that possess C, M, and E proteins. To be noted: for luciferase luminescence, original data (single wells, duplicates): Avg.VC 555022 / Avg.CC 1551.33 (plate 1), 522383 / 1614.33 (plate 2).

As to `CC[C@H](C)[C@@H]1NC(=O)[C@@H](NC(=O)[C@H](C)N)CSSC[C@@H](C(=O)NCC(=O)NCC(=O)NCC(=O)N[C@@H](CO)C(=O)O)NC(=O)[C@H](C)NC(=O)[C@H](CCCNC(=N)N)NC(=O)[C@H]([C@@H](C)O)NC(=O)[C@H](CO)NC(=O)[C@H](CO)NC(=O)[C@H](Cc2c[nH]cn2)NC1=O` [CP4, CIHSSTRAC], the “A450, rDIII binding to hBMECs proteins after pre-incubation with peptide” value in assay [1] (pre-incubated with tenfold molar excess (1.5 nM) of peptide, positive control A450 = 1.064) is recorded as 0.346. The “inhibition of the interaction between rDIII and hBMECs proteins” value in assay [1] (rDIII 0.15 nM pre-incubated with tenfold molar excess (1.5 nM) of peptide, ELISA) came out at 67%. The pEC50 in assay [2] (48 h) is 7.77. For the same compound, the “EC50 (neutralization of VLP) as concentration” value in assay [2] (48 h) came out at 0.1194 µg/mL. Moreover, the “luciferase luminescence, original data (single wells, duplicates)” value in assay [2] (dilution 90) is 125654 and 100462; in assay [2] (listed as B, dilution 30), 31234 and 31350; in assay [2] (listed as D, dilution 270) it was 151785 and 142766; in assay [2] (listed as E, dilution 810), 243092 and 236564; in assay [2] (listed as F, dilution 2430) it was 368265 and 376779; in assay [2] (listed as G, dilution 7290), 424174 and 466082. Moreover, the “Avg. inhibition of VLP infection” value turned out to be 95% in assay [2] (dilution of peptide 30, 666 nanograms of peptide / well); 80% in assay [2] (dilution of peptide 90, 222 nanograms of peptide / well); 74% in assay [2] (dilution of peptide 270, 74 nanograms of peptide / well); 57% in assay [2] (dilution of peptide 810, 24.7 nanograms of peptide / well); 33% in assay [2] (dilution of peptide 2430, 8.2 nanograms of peptide / well); 20% in assay [2] (dilution of peptide 7290, 2.7 nanograms of peptide / well). In assay [2] (sigmoidal 4PL interpolation from EC50 dilution), the “half maximal effective concentration in nanograms/ml” value is 119.48 nanograms/ml. Moreover, the “half maximal effective concentration in nanograms/well (150 ul)” value in assay [2] (well volume 150 ul, sigmoidal 4PL interpolation from EC50 dilution) came out at 17.94 nanograms/well.

The pEC50 is −log10 of the EC50, conventionally taken in molar units. A low value points to a large EC50.
